Common to all, as to assay type: cell-based
The test system of experiment [1] is NCI-H1703 human non-small cell lung squamous carcinoma cells. The experiment in a line: Cell proliferation (Cell Titer Glo), NCI-H1703 cells (PDGFRA). As to conditions: 72 h, 3 days, CTG, * = average of multiple tests, read-out: Cytological experiment PDGFRA IC50. As to the method:
(§1) D. CSF-1R-Related Cell Proliferation Experiment
(§2) Functional effects of compounds on the proliferation of several cell lines were evaluated by Cell Titer Glo (CTG) studies in the present invention, and effects of the compounds on the proliferation of different cells were evaluated to determine the selectivity degree of the compounds. In the experiment, M-07e human cytomegalic leukemia cells (cat. No. CBP60791) from Nanjing Kebai Biotechnology Co., Ltd. were cultured in an incubator under conditions of RPMI1640 (Gibco, cat. No. 11875-119), 20% fetal bovine serum (Gibco, 10099-141), human 10 ng/mL GM-CSF granulocyte macrophage colony-stimulating factors (R&D, cat. No. 215-GM-010), 37° C., and 5% CO2; and Kasumi-1 human acute myeloblastic leukemia cells (cat. No. CBP60524) were cultured in an incubator under conditions of RPMI1640 (Gibco, cat. No. 11875-119), 20% fetal bovine serum (Gibco, 10099-141), 37° C., and 5% CO2: NCI-H1703 human non-small cell lung squamous carcinoma cells (cat. No. CBP60115) were cultured in an incubator under conditions of RPMI1640 (Gibco, cat. No. 11875-119), 10% fetal bovine serum (Gibco, 10099-141), 37° C., and 5% CO2; MV-4-11 human acute monocytic leukemia cells (cat. No. CBP60522) were cultured in an incubator under conditions of IMDM (Invitrogen, cat. No. 12440053), 20% fetal bovine serum (Gibco, 10099-141), 37° C., and 5% CO2. Since ATP is an index for viable cell metabolism, CTG (Promega, #G7573) reagent is a homogeneous detection method for detecting the number of viable cells in the culture by quantifying ATP. Therefore, compound-mediated inhibition for cell proliferation/survival was evaluated by quantifying ATP content in cells, and the specific experimental process was as follows.
II) NCI-H1703 Human Non-Small Cell Lung Squamous Carcinoma Cell
1. The cells were inoculated into a tissue-culture-medium-treated 96-well plate (Costar #3904) with 5000 cells/well/90 μL fresh culture medium, and cultured for 24 hrs;
2. the next day, 10 μL of culture medium containing testing compound with 10-fold of final concentration was added to each well:
(§3) 3. the dosage effect was evaluated by testing 3-fold serial dilutions of the compound, which started from 18 μM;
4. after the cells were incubated for 3 days at 37° C. and 5% CO2, the inhibition on cell survival was quantified after 50 μL of CTG was added and the luminescence assay was performed:
(§4) 5. the compound concentration leading to half maximal inhibitory (IC50) and the compound concentration leading to absolute half maximal inhibitory (Absolute IC50) were measured by a plate reader (M1000, Tecan) and a four-parameter curve fit in Graphpad Prism 7.
On the technique in general: In ATP-based viability assays light output follows the ATP content of the culture.

In experiment [2] the test system is M-NFS-60 mouse myeloid leukemia lymphocytes. The experiment in a line: CSF-1R-related cell proliferation experiment (Cell Titer Glo), M-NFS-60 cells with M-CSF. The following applies: Lymphocyte, 72 h, 3 days, CTG, * = average of multiple tests. As to the method: C. CSF-1R-Related Cell Proliferation Experiment
Functional effects of compounds on cell proliferation were evaluated by using Cell Titer Glo (CTG) study in the present invention. M-NFS-60 mouse myeloid leukemia lymphocytes (cat. No. CCBJ078) from National Institutes For Food and Drug Control were cultured in the incubator under conditions of RPMI 1640 (Gibco, cat. No. 11875-119), 10% fetal bovine serum (Gibco, 10099-141), human 10 ng/mL M-CSF macrophage colony-stimulating factor (R&D, cat. No. MVN0915101), 37° C., and 5% CO2. Since ATP is an index for viable cell metabolism, CTG (Promega, #G7573) reagent is a homogeneous detection method for detecting the number of viable cells in the culture by quantifying ATP. Therefore, compound-mediated inhibition for cell proliferation/survival was evaluated by quantifying ATP content in cells, and the specific experimental process was as follows:
1. The cells were plated into a tissue-culture-medium-treated 96-well plate (Costar #3904) with 5,000 cells/well/80 μL fresh culture medium;
2. 24 hours later, 10 μL culture medium containing testing compound with 10-fold of final concentration was added to each well;
3. 10 μL of culture medium containing M-CSF with 10-fold of the final concentration was then added to each well;
4. dosage effect was evaluated by testing the 3-fold serial dilutions of the compound;
5. after the cells were incubated for 3 days at 37° C. and 5% CO2, the inhibition on cell survival was quantified after 50 μL of CTG was added and the luminescence assay was performed;
6. the compound concentration leading to half maximal inhibitory (IC50) and the compound concentration leading to absolute half maximal inhibitory (Absolute IC50) were measured by a plate reader (M1000, Tecan) and a four-parameter curve fit in Graphpad Prism 7.

The subject of experiment [3] is MV-4-11 human acute monocytic leukemia cells. The experiment in a line: Cell proliferation (Cell Titer Glo), MV-4-11 cells (FLT3). The following applies: MV4-11, 72 h, 3 days, CTG, * = average of multiple tests, read-out: Cytological experiment FLT3 IC50. As to the method:
as §1, §2
III) MV-4-11 Human Acute Monocytic Leukemia Cell
1. The cells were inoculated into a tissue-culture-medium-treated 96-well plate (Costar #3904) with 5000 cells/well/90 μL fresh culture medium, and cultured for 24 hrs:
2. the next day, 10 μL of culture medium containing testing compound with 10-fold of final concentration was added to each well;
as §3
4. after the cells were incubated for 3 days at 37° C. and 5% CO2, the inhibition on cell survival was quantified after 50 μL of CTG was added and the luminescence assay was performed;
as §4

Setting [4] is: read-out: Cytological experiment CSF1R IC50.
[5] abbreviates: absolute half maximal inhibition, read-out: Cytological experiment CSF-1R Absolute IC50.

This is an account of results in patent publication US11130762B2, “Azaaryl derivative, preparation method therefor, and application thereof for use in pharmacy” (Abbisko Therapeutics Co., Ltd., priority 2017, dated 2021).

Read-outs that look alike come from different tables or passages of the source. Some results are limits rather than exact numbers.

As usually defined, the IC50 is the point on the concentration scale where inhibition reaches its midpoint.

For the compound `Cc1nc(-c2cnc3n(c2=O)CCCN3C)ccc1Oc1ccnc(-c2cnn(C)c2)c1` [Example 1, 9-methyl-3-(6-methyl-5-((2-(1-methyl-1H-pyrazol-4-yl)pyridin-4-yl)oxy)pyridin-2-yl)-6,7,8,9-tetrahydro-4H-pyrimido[1,2-a]pyrimidin-4-one], the IC50 in experiment [1] was greater than 18000 nM; in experiment [2] (setting [4]), 101 nM; in experiment [2] (setting [5]), 95.6 nM; in experiment [3], greater than 6000 nM.
For `CCN1CCCn2c1ncc(-c1ccc(Oc3ccnc(-c4cnn(C)c4)c3)c(C)n1)c2=O` [Example 4] the same measures were greater than 2000 nM, 38 nM, 20.2 nM and 1810 nM.
